Data published in US8318746B2, “Nitrogen-containing five-membered heterocyclic compound” (Takeda Pharmaceutical Company Limited, priority 2007, dated 2012).
Blank lines part the entries; values can stand above or below the compound they belong to.

Key:
[1] = target: T1, GST-hLGK1 (GST added to the amino terminal of human liver GK) (Homo sapiens, UniProt P35557); assay: Measurement of GK activation value; format: biochemical; conditions: test compound final concentration 10 μmol/L; reaction rate divided by that of control group (50% DMSO without test compound); Mant-ATP substrate, D-glucose, 37° C., 60 min
T1 construct: with a BamHI site added to immediately before the initiation codon; made in house; host or cells: Escherichia coli BL21 (Stratagene), plasmid pGEX6P-2/hLGK1
T1 sequence (P35557 1-464 isoform P35557-3): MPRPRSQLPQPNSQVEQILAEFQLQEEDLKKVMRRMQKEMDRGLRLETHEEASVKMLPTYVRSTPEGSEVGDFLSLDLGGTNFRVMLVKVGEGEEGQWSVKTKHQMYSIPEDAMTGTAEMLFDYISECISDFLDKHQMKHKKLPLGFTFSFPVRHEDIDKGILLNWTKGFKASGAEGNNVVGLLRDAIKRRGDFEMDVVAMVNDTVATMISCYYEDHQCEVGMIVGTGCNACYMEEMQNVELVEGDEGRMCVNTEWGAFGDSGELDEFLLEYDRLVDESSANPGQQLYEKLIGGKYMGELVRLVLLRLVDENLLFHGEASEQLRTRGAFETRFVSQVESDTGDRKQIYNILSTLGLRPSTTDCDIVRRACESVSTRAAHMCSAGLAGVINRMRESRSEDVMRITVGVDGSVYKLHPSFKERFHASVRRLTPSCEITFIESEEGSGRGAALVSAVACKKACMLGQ
Experimental: To each well of a 384-well black plate (Nalge Nunc International K.K.) was added 5 μL of 50% dimethyl sulfoxide solution containing test compound diluted to 100 μmol/L. Then, GST-hLGK1 obtained in Reference Example 2A was diluted with measurement buffer (containing 50 mM HEPES (pH 7.4), 200 mM KCl, 5 mM MgCl2, 2.5 mM DTT and 50 μM 2′-(or-3′)—O—(N-methylanthraniloyl) adenosine 5′-triphosphate (Mant-ATP) (Jena BioScience)) to 6 μg/mL and 35 μL thereof was added to each well.
Each well was stood at 37° C. for 10 min, 25 mM D-glucose solution (10 μL) was added to start the reaction. The final concentration of the test compound was 10 μmol/L.
Each, well after the reaction was stood at 37° C. for 60 min, and the reaction was quenched by adding 25 μL of a quenching solution (containing 200 mM HEPES (pH 7.4), 20 mM MgCl2, 200 mM EDTA, 0.03% Triton-X 100, 0.3% Coating 3 reagent (Caliper Life Sciences, Inc.)).
2′-(or-3′)-O-(N-methylanthraniloyl)adenosine 5′-triphosphate (Mant-ATP, substrate) and Mant-ADP (reaction resultant product) were separated from each well after the reaction by a microchip type capillary electrophoresis apparatus 250 HTS (Caliper Life Sciences, Inc.). The reaction rate [(reaction resultant product peak height)/(reaction resultant product peak height+substrate peak height)×100(%)] was calculated from the ratio of the substrate peak height and reaction resultant product peak height obtained by fluorescence detection (excitation wavelength 355 nm, measurement wavelength 460 nm) and used as the index of GK activity.
As a control group, the reaction rate was calculated in the same manner as above except that “solution in 50% dimethyl sulfoxide (without test compound)” was used instead of “solution of test compound in 50% dimethyl sulfoxide”.
The reaction rate of the well (test compound addition group) added with the test compound was divided by the reaction rate of the control group and the obtained percentage was taken as the GK activation value (Emax) of the test compound.

Structure (SMILES): O=S(=O)(c1ccc(C(CC2CCOCC2)c2ccc(-c3ccc(C(O)CO)cn3)[nH]2)cc1)C1CC1 (stereo not shown) [Example 42, 1-[6-(5-{1-[4-(cyclopropylsulfonyl)phenyl]-2-(tetrahydro-2H-pyran-4-yl)ethyl}-1H-pyrrol-2-yl)pyridin-3-yl]ethane-1,2-diol]
Emax at 10 µM [1]: 156%

Structure (SMILES): CC(=O)N1CCN(Cc2ccc(-c3ccc(C(CC4CCOCC4)c4ccc(S(=O)(=O)C5CC5)cc4)[nH]3)nc2)CC1 (stereo not shown) [Example 62, 1-acetyl-4-{[6-(5-{1-[4-(cyclopropylsulfonyl)phenyl]-2-(tetrahydro-2H-pyran-4-yl)ethyl}-1H-pyrrol-2-yl)pyridin-3-yl]methyl}piperazine]
Emax at 10 µM [1]: 153%

Structure (SMILES): O=S1(=O)CCN(Cc2ccc(-c3ccc(C(CC4CCOCC4)c4ccc(S(=O)(=O)C5CC5)cc4)[nH]3)nc2)CC1 (stereo not shown) [Example 63]
Emax at 10 µM [1]: 154%

Structure (SMILES): CS(=O)(=O)c1ccc(C(CC2CCOCC2)c2ccc(-c3ccc(C(O)CO)cn3)[nH]2)cc1Cl (stereo not shown) [Example 91, 1-[6-(5-{1-[3-chloro-4-(methylsulfonyl)phenyl]-2-(tetrahydro-2H-pyran-4-yl)ethyl}-1H-pyrrol-2-yl)pyridin-3-yl]ethane-1,2-diol]
Emax at 10 µM [1]: 142%

Structure (SMILES): CC(C)(O)C(O)c1ccc(-c2ccc(C(CC3CCOCC3)c3ccc(S(=O)(=O)C4CC4)cc3)[nH]2)nc1 (stereo not shown) [Example 127, 1-[6-(5-{1-[4-(cyclopropylsulfonyl)phenyl]-2-(tetrahydro-2H-pyran-4-yl)ethyl}-1H-pyrrol-2-yl)pyridin-3-yl]-2-methylpropane-1,2-diol]
Emax at 10 µM [1]: 139%

Structure (SMILES): CCS(=O)(=O)CCNCc1cnc(-c2ccc(C(CC3CCOCC3)c3ccc(S(=O)(=O)C4CC4)cc3)[nH]2)s1.Cl (stereo not shown) [Example 160, N-{[2-(5-{1-[4-(cyclopropylsulfonyl)phenyl]-2-(tetrahydro-2H-pyran-4-yl)ethyl}-1H-pyrrol-2-yl)-1,3-thiazol-5-yl]methyl}-2-(ethylsulfonyl)ethanamine hydrochloride]
Emax at 10 µM [1]: 155%
melting point: 127 to 129 °C

Structure (SMILES): COC(OC)C(C)(O)c1cnc(-c2ccc(C(CC3CCOCC3)c3ccc(S(=O)(=O)C4CC4)cc3)[nH]2)s1 (stereo not shown) [Example 164, 2-[2-(5-{1-[4-(cyclopropylsulfonyl)phenyl]-2-(tetrahydro-2H-pyran-4-yl)ethyl}-1H-pyrrol-2-yl)-1,3-thiazol-5-yl]-1,1-dimethoxypropan-2-ol]
Emax at 10 µM [1]: 148%

Structure (SMILES): CC(O)c1cnc(-c2ccc(C(CC3CCOCC3)c3ccc(S(C)(=O)=O)c(Cl)c3)[nH]2)s1 (stereo not shown) [Example 172, 1-[2-(5-{1-[3-chloro-4-(methylsulfonyl)phenyl]-2-(tetrahydro-2H-pyran-4-yl)ethyl}-1H-pyrrol-2-yl)-1,3-thiazol-5-yl]ethanol]
Emax at 10 µM [1]: 148%

Structure (SMILES): O=S(=O)(c1ccc(C(CC2CCOCC2)c2ccc(-c3nnc(CN4CC(O)C4)s3)[nH]2)cc1)C1CC1 (stereo not shown) [Example 227, 1-{[5-(5-{1-[4-(cyclopropylsulfonyl)phenyl]-2-(tetrahydro-2H-pyran-4-yl)ethyl}-1H-pyrrol-2-yl)-1,3,4-thiadiazol-2-yl]methyl}azetidin-3-ol]
Emax at 10 µM [1]: 129%

Structure (SMILES): O=S(=O)(c1ccc(C(CC2CCOCC2)c2ccc(-c3nnc(CN4CCOCC4)s3)[nH]2)cc1)C1CC1 (stereo not shown) [Example 228, 4-{[5-(5-{1-[4-(cyclopropylsulfonyl)phenyl]-2-(tetrahydro-2H-pyran-4-yl)ethyl}-1H-pyrrol-2-yl)-1,3,4-thiadiazol-2-yl]methyl}morpholine]
Emax at 10 µM [1]: 145%

More lines, now with the values ahead:

Emax at 10 µM [1]: 148%
Structure (SMILES): O=S(=O)(c1ccc(C(CC2CCOCC2)c2ccc(-c3ccc(C(CO)CO)cn3)[nH]2)cc1)C1CC1 (stereo not shown) [Example 53, 2-[6-(5-{1-[4-(cyclopropylsulfonyl)phenyl]-2-(tetrahydro-2H-pyran-4-yl)ethyl}-1H-pyrrol-2-yl)pyridin-3-yl]propane-1,3-diol]

Emax at 10 µM [1]: 151%
Structure (SMILES): O=S(=O)(c1ccc(C(CC2CCOCC2)c2ccc(-c3ccc(CN4CC[S+]([O-])CC4)cn3)[nH]2)cc1)C1CC1 (stereo not shown) [Example 59, 4-{[6-(5-{1-[4-(cyclopropylsulfonyl)phenyl]-2-(tetrahydro-2H-pyran-4-yl)ethyl}-1H-pyrrol-2-yl)pyridin-3-yl]methyl}thiomorpholine 1-oxide]

Emax at 10 µM [1]: 167%
Structure (SMILES): CC(O)c1cnc(-c2ccc(C(CC3CCOCC3)c3ccc(S(=O)(=O)C4CC4)cc3)[nH]2)s1 (stereo not shown) [Example 151, 1-[2-(5-[1-[4-(cyclopropylsulfonyl)phenyl]-2-(tetrahydro-2H-pyran-4-yl)ethyl]-1H-pyrrol-2-yl)-1,3-thiazol-5-yl]ethanol]

Emax at 10 µM [1]: 171%
Structure (SMILES): COCC(O)c1ccc(-c2ccc(C(CC3CCOCC3)c3ccc(S(=O)(=O)C4CC4)cc3)[nH]2)nc1 (stereo not shown) [Example 177, 1-[6-(5-[1-[4-(cyclopropylsulfonyl)phenyl]-2-(tetrahydro-2H-pyran-4-yl)ethyl]-1H-pyrrol-2-yl)pyridin-3-yl]-2-methoxyethanol]

Emax at 10 µM [1]: 142%
Structure (SMILES): CS(=O)(=O)c1ccc(C(C[C@H]2CCC(=O)C2)c2ccc(-c3ccc(CO)cn3)[nH]2)cc1Cl (stereo partly shown) [Example 197]

Emax at 10 µM [1]: 141%
Structure (SMILES): CC(O)c1nnc(-c2ccc(C(CC3CCOCC3)c3ccc(S(=O)(=O)C4CC4)cc3)[nH]2)s1 (stereo not shown) [Example 225, 1-[5-(5-{1-[4-(cyclopropylsulfonyl)phenyl]-2-(tetrahydro-2H-pyran-4-yl)ethyl}-1H-pyrrol-2-yl)-1,3,4-thiadiazol-2-yl]ethanol]

Emax at 10 µM [1]: 152%
melting point: 152 to 153 °C
Structure (SMILES): O=S(=O)(c1ccc(C(CC2CCOCC2)c2ccc(-c3ccc(Cn4cncn4)cn3)[nH]2)cc1)C1CC1 (stereo not shown) [Example 237, 2-(5-{1-[4-(cyclopropylsulfonyl)phenyl]-2-(tetrahydro-2H-pyran-4-yl)ethyl}-1H-pyrrol-2-yl)-5-(1H-1,2,4-triazol-1-ylmethyl)pyridine]
